This passage reports mutagenic call results from PubChem BioAssay AID1259407 (Chemical Carcinogenesis Research Information System (CCRIS), 2018).

The test system of this data set is CCRIS mutagenicity, Ames/micronucleus/aberration tests. Kind of data set: CCRIS mutagenicity studies.
Where [1] appears, read: Test System: AMES SALMONELLA TYPHIMURIUM, Strain/Indicator: TA98, Metabolic Activation: NONE, Method: STANDARD PLATE.
Setting [2] is: Test System: AMES SALMONELLA TYPHIMURIUM, Strain/Indicator: TA98, Metabolic Activation: RAT, LIVER, S-9, AROCLOR 1254, Method: STANDARD PLATE.
Setting [3] is: Test System: AMES SALMONELLA TYPHIMURIUM, Strain/Indicator: TA100, Metabolic Activation: NONE, Method: STANDARD PLATE.
The mark [4] stands for this setting: Test System: AMES SALMONELLA TYPHIMURIUM, Strain/Indicator: TA100, Metabolic Activation: RAT, LIVER, S-9, AROCLOR 1254, Method: STANDARD PLATE.
[5] abbreviates: Test System: AMES SALMONELLA TYPHIMURIUM, Strain/Indicator: TA1535, Metabolic Activation: NONE, Method: STANDARD PLATE.
Where [6] appears, read: Test System: AMES SALMONELLA TYPHIMURIUM, Strain/Indicator: TA1535, Metabolic Activation: RAT, LIVER, S-9, AROCLOR 1254, Method: STANDARD PLATE.
[7] abbreviates: Test System: AMES SALMONELLA TYPHIMURIUM, Strain/Indicator: TA1537, Metabolic Activation: NONE, Method: STANDARD PLATE.
Setting [8] is: Test System: AMES SALMONELLA TYPHIMURIUM, Strain/Indicator: TA1537, Metabolic Activation: RAT, LIVER, S-9, AROCLOR 1254, Method: STANDARD PLATE.
The mark [9] stands for this setting: Test System: AMES SALMONELLA TYPHIMURIUM, Strain/Indicator: TA1538, Metabolic Activation: NONE, Method: STANDARD PLATE.
Setting [10] is: Test System: AMES SALMONELLA TYPHIMURIUM, Strain/Indicator: TA1538, Metabolic Activation: RAT, LIVER, S-9, AROCLOR 1254, Method: STANDARD PLATE.

The source made the active and inactive calls. The rule behind the calls is not given here.

As for `C=C(Cl)CCl`, the mutagenic call runs as follows: (End Point: IN VITRO CHROMOSOMAL ABERRATIONS, Test System: CHO-LB CELLS, Metabolic Activation: NONE) “active; positive”; (End Point: IN VITRO CHROMOSOMAL ABERRATIONS, Test System: CHO-LB CELLS, Metabolic Activation: RAT, LIVER, S-9, AROCLOR 1254) “active; positive”; (Test System: AMES SALMONELLA TYPHIMURIUM, Strain/Indicator: TA97, Metabolic Activation: HAMSTER, LIVER, S-9, AROCLOR 1254 (10%), Method: PREINCUBATION) “active; positive”; (Test System: AMES SALMONELLA TYPHIMURIUM, Strain/Indicator: TA97, Metabolic Activation: NONE, Method: PREINCUBATION) “active; positive”; (Test System: AMES SALMONELLA TYPHIMURIUM, Strain/Indicator: TA97, Metabolic Activation: RAT, LIVER, S-9, AROCLOR 1254 (10%), Method: PREINCUBATION) “active; positive”; (Test System: AMES SALMONELLA TYPHIMURIUM, Strain/Indicator: TA98, Metabolic Activation: HAMSTER, LIVER, S-9, AROCLOR 1254 (10%), Method: PREINCUBATION) “active; positive”. Moreover, the mutagenic call (Test System: AMES SALMONELLA TYPHIMURIUM, Strain/Indicator: TA98, Metabolic Activation: HAMSTER, LIVER, S-9, AROCLOR 1254, Method: STANDARD PLATE) was “active; positive”; the mutagenic call (Test System: AMES SALMONELLA TYPHIMURIUM, Strain/Indicator: TA98, Metabolic Activation: NONE, Method: PREINCUBATION) was “active; positive”; the mutagenic call under setting [1] was “active; positive”; the mutagenic call (Test System: AMES SALMONELLA TYPHIMURIUM, Strain/Indicator: TA98, Metabolic Activation: RAT, LIVER, S-9, AROCLOR 1254 (10%), Method: PREINCUBATION) was “active; positive”; the mutagenic call under setting [2] was “inactive; negative”; the mutagenic call (Test System: AMES SALMONELLA TYPHIMURIUM, Strain/Indicator: TA100, Metabolic Activation: HAMSTER, LIVER, S-9, AROCLOR 1254 (10%), Method: PREINCUBATION) is “active; positive”. For the same compound, the mutagenic call reads like this: (Test System: AMES SALMONELLA TYPHIMURIUM, Strain/Indicator: TA100, Metabolic Activation: HAMSTER, LIVER, S-9, AROCLOR 1254, Method: STANDARD PLATE) “active; positive”; (Test System: AMES SALMONELLA TYPHIMURIUM, Strain/Indicator: TA100, Metabolic Activation: NONE, Method: PREINCUBATION) “active; positive”; under setting [3], “active; positive”; (Test System: AMES SALMONELLA TYPHIMURIUM, Strain/Indicator: TA100, Metabolic Activation: RAT, LIVER, MICROSOMES, PHENOBARBITAL, NADPH COFACTORS, Method: STANDARD PLATE) “inactive; negative”; (Test System: AMES SALMONELLA TYPHIMURIUM, Strain/Indicator: TA100, Metabolic Activation: RAT, LIVER, MICROSOMES, PHENOBARBITAL, Method: STANDARD PLATE) “inactive; negative”; (Test System: AMES SALMONELLA TYPHIMURIUM, Strain/Indicator: TA100, Metabolic Activation: RAT, LIVER, S-9, AROCLOR 1254 (10%), Method: PREINCUBATION) “active; positive”. Further, the mutagenic call is, setting by setting: under setting [4], “active; positive”; (Test System: AMES SALMONELLA TYPHIMURIUM, Strain/Indicator: TA102, Metabolic Activation: S-9, Method: STANDARD PLATE) “inactive; negative”; (Test System: AMES SALMONELLA TYPHIMURIUM, Strain/Indicator: TA1535, Metabolic Activation: HAMSTER, LIVER, S-9, AROCLOR 1254 (10%), Method: PREINCUBATION) “active; positive”; (Test System: AMES SALMONELLA TYPHIMURIUM, Strain/Indicator: TA1535, Metabolic Activation: HAMSTER, LIVER, S-9, AROCLOR 1254, Method: STANDARD PLATE) “active; positive”; (Test System: AMES SALMONELLA TYPHIMURIUM, Strain/Indicator: TA1535, Metabolic Activation: NONE, Method: PREINCUBATION) “active; positive”; under setting [5], “active; positive”. For the same compound, the mutagenic call reads like this: (Test System: AMES SALMONELLA TYPHIMURIUM, Strain/Indicator: TA1535, Metabolic Activation: RAT, LIVER, S-9, AROCLOR 1254 (10%), Method: PREINCUBATION) “active; positive”; under setting [6], “active; positive”; (Test System: AMES SALMONELLA TYPHIMURIUM, Strain/Indicator: TA1537, Metabolic Activation: HAMSTER, LIVER, S-9, AROCLOR 1254, Method: STANDARD PLATE) “inactive; negative”; under setting [7], “inactive; negative”; under setting [8], “inactive; negative”; (Test System: AMES SALMONELLA TYPHIMURIUM, Strain/Indicator: TA1538, Metabolic Activation: HAMSTER, LIVER, S-9, AROCLOR 1254, Method: STANDARD PLATE) “inactive; negative”. Besides, the mutagenic call was “inactive; negative” under setting [9]; “inactive; negative” under setting [10]; “active; positive” (Test System: AMES SALMONELLA TYPHIMURIUM, Strain/Indicator: TA1978, Metabolic Activation: NONE, Method: STANDARD PLATE); “active; positive” (Test System: AMES SALMONELLA TYPHIMURIUM, Strain/Indicator: TA1978, Metabolic Activation: RAT, LIVER, S-9, AROCLOR 1254, Method: STANDARD PLATE); “inactive; negative” (Test System: AMES SALMONELLA TYPHIMURIUM, Strain/Indicator: TA2638, Metabolic Activation: S-9, Method: STANDARD PLATE); “inactive; negative” (Test System: E. COLI, Strain/Indicator: WP2 (PKM101), Metabolic Activation: S-9, Method: STANDARD PLATE). Moreover, the mutagenic call (Test System: E. COLI, Strain/Indicator: WP2 UVRA (PKM101), Metabolic Activation: S-9, Method: STANDARD PLATE) was “active; positive”; the mutagenic call (Test System: MOUSE LYMPHOMA, Strain/Indicator: L5178Y (TK+/TK-), Metabolic Activation: NONE, Method: SUSPENSION/PLATE) is “active; positive. reevaluation of results: positive”; the mutagenic call (Test System: MOUSE LYMPHOMA, Strain/Indicator: L5178Y (TK+/TK-), Metabolic Activation: RAT, LIVER, S-9, AROCLOR 1254, Method: SUSPENSION/PLATE) is “active; positive. reevaluation of results: positive”.

For `C/C=C/c1cc(OC)c(OC)cc1OC`, the mutagenic call runs as follows: (Test System: AMES SALMONELLA TYPHIMURIUM, Strain/Indicator: TA97, Metabolic Activation: NONE, Method: STANDARD PLATE) “inactive; negative”; (Test System: AMES SALMONELLA TYPHIMURIUM, Strain/Indicator: TA97, Metabolic Activation: RAT, LIVER, S-9, AROCLOR 1254, Method: STANDARD PLATE) “inactive; negative”; under setting [1], “inactive; negative”; under setting [2], “inactive; negative”; (Test System: AMES SALMONELLA TYPHIMURIUM, Strain/Indicator: TA100, Metabolic Activation: NONE) “inactive; negative”; under setting [3], “inactive; negative”. For the same compound, the mutagenic call is “inactive; negative” under setting [4]; “active; positive” (Test System: AMES SALMONELLA TYPHIMURIUM, Strain/Indicator: TA100, Metabolic Activation: S-9); “active; positive” under setting [5]; “inactive; negative” under setting [6]; “inactive; negative” under setting [7]; “inactive; negative” under setting [8]. Besides, the mutagenic call is “inactive; negative” under setting [9]; “inactive; negative” under setting [10]; “active; positive” (Test System: UDS RAT HEPATOCYTES, Strain/Indicator: THY INCORP, Metabolic Activation: NONE, Method: LIQUID SCINTILLATION COUNTING).

As for `Cn1c(N=[N+]=[N-])nc2ccc3ccccc3c21`, the mutagenic call (Test System: AMES SALMONELLA TYPHIMURIUM, Strain/Indicator: TA98(1,8-DNP6), Metabolic Activation: NONE, Method: STANDARD PLATE) was “active; positive” and the mutagenic call under setting [1] is “active; positive”.
